{"source": "patent US9428452B2", "about": "“Compounds” (Glaxo Group Limited, priority 2012, dated 2016)", "assay_type_in_all_cases": "cell-based", "key": {"IL-17A mRNA expression": {"tested_on": "IL-17A mRNA expression", "assay": "Ex-vivo human skin model, IL-17A mRNA expression", "conditions": "for Percentage of inhibition of IL-17A mRNA expression: Th17 cytokine cocktail 24 h, RT-PCR"}, "IL-22 mRNA expression": {"tested_on": "IL-22 mRNA expression", "assay": "Ex-vivo human skin model, IL-22 mRNA expression", "conditions": "for Percentage of inhibition of IL-22 mRNA expression: Th17 cytokine cocktail 24 h, RT-PCR"}, "[1]": {"tested_on": "IL-17A secreted from antiCD3/CD28 stimulated Peripheral Blood Mononuclear cells (PBMC)", "assay": "Peripheral Blood Mononucleocyte Cell Assay (PBMC Assay - IL-17)", "conditions": "Homo sapiens, 48 h, IL-17A release, read-out: mean pIC50 (converted)", "experimental": "Peripheral Blood Mononucleocvte Cell Assay (PBMC Assay—IL-17) […]\nThis assay is designed to measure levels of IL-17A secreted from antiCD3/CD28 stimulated frozen Peripheral Blood Mononuclear cells (PBMC) isolated from human blood with the aim of identifying inhibitors of IL-17A release.\n2. The compounds for screening are dispensed into a master plate at 10 mM top concentration which are serially diluted 1:3 across 11 points in DMSO, then 500 nL is transferred into a 384-well flat-bottomed Greiner plate to which 50 uL of cell suspension is added: for the single shot screening the highest concentration of compound is 10^−5M; for 11 point full curve dose response studies the highest concentration is 10^−4 M.\nAs a low control, DMSO (as supplied, for example, by VWR) (final concentration 1%) in column 6 (16 points).\nAs a high control, 5-(4-fluorophenyl)-2-ureidothiophene-3-carboxamide (obtainable from, for example, Sigma) at a final concentration of 10^−4 M in DMSO should be used in column 18 (16 points).\n9. Make the cell suspension at the concentration 8×10^5 cells/mL to give a final number of 40,000 cells/well.\n1. Add well mixed CD3/CD28 Dynabeads (as supplied, for example, by Dynal) to achieve ratio bead:cell=2:1 (ie. a dilution of 1 in 20). Mix thoroughly.\n2. Dispense the suspension into the 384 Assay Plates using Multidrop (50 uL per well). If the volume of cell suspension is large, mix the suspension after dispensing into every other plate.\n3. Cover the plates with the lids and place them to the humidified incubator (37° C., 5% CO2) for 48 hours.\n1. Transfer 10 uL of supernatants from assay plates to the MSD plates using Cybiwell. Ensure that all wells are covered with the solution. Tap the plate gently, if some of the wells are not covered with the supernatant.\n3. Add 10 uL of MSD IL-17 detecting antibody using multidrop (1 ug/mL in D-PBS without Ca^2+ and Mg^2+ (supplied, for example, by Gibco)).\n4. Cover the plates with adhesive foil and incubated with shaking for 3 hours at room temperature\n7. Add 35 uL of MSD Read Buffer T×2 using multidrop.\n8. Read plates on MSD MA6000 reader using the 384 well plate protocol as per manufacturer's instructions."}, "IL-17F mRNA expression": {"tested_on": "IL-17F mRNA expression", "assay": "Ex-vivo human skin model, IL-17F mRNA expression", "conditions": "for Percentage of inhibition of IL-17F mRNA expression: Th17 cytokine cocktail 24 h, RT-PCR"}, "[2]": {"conditions": "four different donors, compound 10 μM"}}, "note": "Marks after values point to notes of the source that are not given here."}
{"compound": "CCc1ccc(N(CC(C)C)S(=O)(=O)c2ccc([C@@H](O)CN3CCOCC3)c(CO)c2)cc1", "note": "[Example E126, N-(4-ethylphenyl)-4-(1-hydroxy-2-morpholinoethyl)-3-(hydroxymethyl)-N-isobutylbenzenesulfonamide]", "values": [{"measurement": "Percentage of inhibition of IL-17A mRNA expression", "setting": "IL-17A mRNA expression; Skin Donor 1, compound 10 μM", "result": 76, "unit": "% *"}, {"measurement": "Percentage of inhibition of IL-17A mRNA expression", "setting": "IL-17A mRNA expression; Skin Donor 2, compound 10 μM", "result": 93, "unit": "% *"}, {"measurement": "Percentage of inhibition of IL-17A mRNA expression", "setting": "IL-17A mRNA expression; Skin Donor 3, compound 10 μM", "result": 60, "unit": "% *"}, {"measurement": "Percentage of inhibition of IL-17A mRNA expression", "setting": "IL-17A mRNA expression; Skin Donor 4, compound 10 μM", "result": 85, "unit": "% *"}, {"measurement": "gene transcription of il17a (result in words)", "setting": "IL-17A mRNA expression; [2]", "result": "inhibited"}, {"measurement": "Percentage of inhibition of IL-22 mRNA expression", "setting": "IL-22 mRNA expression; Skin Donor 1, compound 10 μM", "result": 67, "unit": "% *"}, {"measurement": "Percentage of inhibition of IL-22 mRNA expression", "setting": "IL-22 mRNA expression; Skin Donor 2, compound 10 μM", "result": 58, "unit": "%"}, {"measurement": "Percentage of inhibition of IL-22 mRNA expression", "setting": "IL-22 mRNA expression; Skin Donor 3, compound 10 μM", "result": 60, "unit": "%"}, {"measurement": "Percentage of inhibition of IL-22 mRNA expression", "setting": "IL-22 mRNA expression; Skin Donor 4, compound 10 μM", "result": 58, "unit": "% *"}, {"measurement": "gene transcription of il22 (result in words)", "setting": "IL-22 mRNA expression; [2]", "result": "inhibited"}, {"measurement": "IC50", "setting": "[1]", "result": 794, "unit": "nM"}, {"measurement": "Percentage of inhibition of IL-17F mRNA expression", "setting": "IL-17F mRNA expression; Skin Donor 1, compound 10 μM", "result": 67, "unit": "% *"}, {"measurement": "Percentage of inhibition of IL-17F mRNA expression", "setting": "IL-17F mRNA expression; Skin Donor 2, compound 10 μM", "result": 89, "unit": "% *"}, {"measurement": "Percentage of inhibition of IL-17F mRNA expression", "setting": "IL-17F mRNA expression; Skin Donor 3, compound 10 μM", "result": 67, "unit": "% *"}, {"measurement": "Percentage of inhibition of IL-17F mRNA expression", "setting": "IL-17F mRNA expression; Skin Donor 4, compound 10 μM", "result": 74, "unit": "% *"}, {"measurement": "gene transcription of il17f (result in words)", "setting": "IL-17F mRNA expression; [2]", "result": "inhibited"}]}
